“Also recorded” adds a separate entry of the source.
These substances were tested on NCI-60 cell lines.
Type: cell-based, human

Substance	Cell Line (NCI-60 cell line the peptide and its motif are associated with)	Cell Line the peptide is associated with (peptide recovered from phage library selection on this NCI-60 cell line)	Cell Line with which the peptide (and its tripeptide motif) is associated	Cell Line (NCI-60 cell line the peptide is associated with)
RGSLLWA	UACC 257 Melanoma			
VHKRAVL		UO31 Renal		
GDSRRGV			Hop-62-Lung	
LPLGLVS		T-47D Breast		
GGSSEFR			Hop-92-Lung	
FGGRSLS				SNB-75 CNS
HAPGLRV				MALME-3M Melanoma
GSWARGY				HCT-15 Colon
WAGSNYS				SNB-75 CNS
FISAGGW		MDA-MB-231 Breast		
TLGLRVP		TK-10 Renal		
LGGARGV		MDA-MB-231 Breast		
LRASLLW				HCC-2998-Colon
VIVRGSL		UO31 Renal		
SGSVNRG			RPMI-8226-Leukemia	
SRLSYRT		TK-10 Renal		
STSLGAG			H322-Lung	
YGALAGL	PC3 Prostate			
GGGSGGG	OVCAR-4 Ovarian			
RLHYLRS	M14 Melanoma			
VPLRSSA				HT-29 Colon
SRASGHG				HT-29 Colon

Substance	Cell Line (NCI-60 cell line the peptide and its motif are associated with)	Cell Line the peptide is associated with (peptide recovered from phage library selection on this NCI-60 cell line)	Cell Line with which the peptide (and its tripeptide motif) is associated	Cell Line (NCI-60 cell line the peptide is associated with)
LGGSRDL				HCT-116 Colon
GSGRQLP		BT-549 Breast		
SRFRVSI			CCRF-CEM Leukemia	
NAVRGSA				HCT-116 Colon
VYGGRSE		CAIK-1 Renal		
LRVRYAV			H322-Lung	
RVRSSLA		HS 578 T Breast		
GLRVYEP	PC3 Prostate			
LGLSGLG		NCI/ADR-RES Breast		
VRLRAVF		TK-10 Renal		
LGVREVG		HS 578 T Breast		
PKAGRGS			Hop-62-Lung	
WVGPSGG	SK-MEL-5 Melanoma			
GGRVLGQ	OVCAR-4 Ovarian			
YLAGGKA	IGROV1 Ovarian			
LRSDPRS				HT-29 Colon
VLSAVSS				SNB-19 CNS; also recorded: SF-539 CNS
VARAVPC			Hop-92-Lung	
VSAASSV		RXF393 Renal		
NVSRAVG	OVCAR-8 Ovarian			
PRLSDKS	SK-MEL-28 Melanoma			
REEFAGR			SR Leukemia	

Substance	Cell Line (NCI-60 cell line the peptide and its motif are associated with)	Cell Line the peptide is associated with (peptide recovered from phage library selection on this NCI-60 cell line)	Cell Line with which the peptide (and its tripeptide motif) is associated	Cell Line (NCI-60 cell line the peptide is associated with)
GRMLVSG	OVCAR-4 Ovarian			
AGATRGS		HS 578 T Breast		
PIGAVMN	DU-145 Prostate			
MGSAVSL			Hop-92-Lung	
QGLVRGG	OVCAR-4 Ovarian			
LSVLRVL	IGROV1 Ovarian			
VAGRLQM	OVCAR-4 Ovarian			
RGVFYGK			H322-Lung	
MITRGRL				HCT-15 Colon
RGGSDEA		BT-549 Breast		
LAGSRVS	OVCAR-4 Ovarian			
VGVSQEW		TK-10 Renal		
GHYRASV				HT-29 Colon
GGLSECV			H226-Lung	
WLLRSWS		CAIK-1 Renal		
HVKNGRV	SK-MEL-28 Melanoma			
AGSPLAK			H23-Lung	
RMGFGLR				LOX-IMVI Melanoma
LVRVSGR			HL-60-Leukemia	
GLGNRPT			RPMI-8226-Leukemia	
RSSYAPP		ACHN Renal		
LSGSVLQ				HCT-116 Colon

Substance	Cell Line (NCI-60 cell line the peptide and its motif are associated with)	Cell Line the peptide is associated with (peptide recovered from phage library selection on this NCI-60 cell line)	Cell Line with which the peptide (and its tripeptide motif) is associated	Cell Line (NCI-60 cell line the peptide is associated with)
ARVGVSP			H322-Lung	
YGQYGGL				HCT-15 Colon
GGSVEGQ		ACHN Renal		
YADGAAV				SF-295 CNS
RAVCEWD		CAIK-1 Renal		
DNDGARG				COLO-205-Colon
GAGGVDV	786-0 Renal			
GSSWVVD			A549-Lung	
RPARGAF		ACHN Renal		
GLGALRW		NCI/ADR-RES Breast		
TIPAGGG		MDA-MB-231 Breast		
AGRSCNL				HCT-116 Colon
YFRARGS	786-0 Renal			
LLRPGTV				HCC-2998-Colon
LIGGLLS	SK-MEL-5 Melanoma			
VLLSAGL		RXF393 Renal		
ARYSLRS	786-0 Renal			
RIFHGAV				SNB-19 CNS; also recorded: SF-539 CNS
LLRRLSW	SK-MEL-2 Melanoma			
RMGLLRQ	M14 Melanoma			
YGSGGRG				HT-29 Colon
LSFSRGS			HL-60-Leukemia	

Substance	Cell Line (NCI-60 cell line the peptide and its motif are associated with)	Cell Line the peptide is associated with (peptide recovered from phage library selection on this NCI-60 cell line)	Cell Line with which the peptide (and its tripeptide motif) is associated	Cell Line (NCI-60 cell line the peptide is associated with)
ARGSWRE		TK-10 Renal		
ARAGSTF	A498 Renal			
SRYGLRR			RPMI-8226-Leukemia	
GAVTGYP				SF-268 CNS
LFAVAAV			Hop-62-Lung	
SARQGGR	M14 Melanoma			
SLGSVGS			EKVX-Lung	
AGGVRDL	PC3 Prostate			
GEGRLCG		CAIK-1 Renal		
VEEGRLR				SW620-Colon
LVSTRWA		RXF393 Renal		
AGLPHRF		UO31 Renal		
AHYTLRS				COLO-205-Colon
DGGGRVG		CAIK-1 Renal		
AVSGRSL	M14 Melanoma			
AGGFRFI	SK-MEL-2 Melanoma			
WRLLRRQ			SR Leukemia	
RYGVGGL				HT-29 Colon
RGSHLVP			CCRF-CEM Leukemia	
GGYWLRS	M14 Melanoma			
TWHAGGI		ACHN Renal		
PGKRGVQ			H460-Lung	

Substance	Cell Line (NCI-60 cell line the peptide and its motif are associated with)	Cell Line the peptide is associated with (peptide recovered from phage library selection on this NCI-60 cell line)	Cell Line with which the peptide (and its tripeptide motif) is associated	Cell Line (NCI-60 cell line the peptide is associated with)
ASLSVVI		UO31 Renal		
LSTPGRV		UO31 Renal		
GGLSNVV				SW620-Colon
SGAGSVS	OVCAR-5 Ovarian			
SFWWLRS		TK-10 Renal		
DAGRTID			Hop-62-Lung	
VARGQMQ			H226-Lung	
VRANGGS		MDA-MB-231 Breast		
LGQCGRV			HL-60-Leukemia	
FWISRAS			RPMI-8226-Leukemia	
AAGRAGC			H322-Lung	
DRASSWA	A498 Renal			
DRFGSSA		ACHN Renal		
RAMGGAG			RPMI-8226-Leukemia	
ERARGYP			SR Leukemia	
SYMGAAS		SN12C Renal		
PWYDGSV	OVCAR-3 Ovarian			
TRGAVFG	SK-MEL-5 Melanoma			
SVVLAGS				LOX-IMVI Melanoma
ASAGAVS	786-0 Renal			
QGSSNSV	IGROV1 Ovarian			
WGVAGLG				HT-29 Colon
